This passage reports stoichiometry N and Km results from paper PMC4319993 (Nature, 2014).

In experiment [1] the target is Rhodopseudomonas palustris long-chain acyl-CoA carboxylase (Rhodopseudomonas palustris). As to the kind of experiment: SEC.
Experiment [2] concerns R. palustris LCC (RpLCC). Description: coupled ATPase assay. It is filed as biochemical, Rhodopseudomonas palustris. To be noted: 1.5 mM ATP, 40 mM KHCO3, 10 mM MgCl2, 200 mM KCl, 100 mM Hepes pH 7.5; 0.25 uM enzyme.
In experiment [3] the target is Mycobacterium avium subspecies paratuberculosis long-chain acyl-CoA carboxylase (Mycobacterium avium subspecies paratuberculosis). As to the kind of experiment: crystal structure.
For experiment [4] the target is unchanged. Description: SEC. On the technique in general: SEC sorts molecules by how far they enter the pores of the column.
Experiment [5] has the same target. As to the kind of experiment: crystal structure. This is another data set of the same source.

A word on the stoichiometry N: it is a count of units in the complex or per binding partner. One may read the Km as the substrate concentration at which the rate is half of its maximum.

In experiment [1], “Rhodopseudomonas palustris long-chain acyl-CoA carboxylase (enzyme)” displayed a stoichiometry N of 6.

On to `CCCCCCCCCCCCCC(=O)SCCNC(=O)CCNC(=O)[C@H](O)C(C)(C)COP(=O)(O)OP(=O)(O)OC[C@H]1O[C@@H](n2cnc3c(N)ncnc32)[C@H](O)[C@@H]1OP(=O)(O)O` [Myristoyl-CoA], for which the Km in experiment [2] amounted to 26 ± 2 µM.

Take `CCCC(=O)SCCNC(=O)CCNC(=O)[C@H](O)C(C)(C)COP(=O)(O)OP(=O)(O)OC[C@H]1O[C@@H](n2cnc3c(N)ncnc32)[C@H](O)[C@@H]1OP(=O)(O)O` [Butyryl-CoA]: the Km in experiment [2] was found to be 820 ± 160 µM.

For `CC(=O)SCCNC(=O)CCNC(=O)[C@H](O)C(C)(C)COP(=O)(O)OP(=O)(O)OC[C@H]1O[C@@H](n2cnc3c(N)ncnc32)[C@H](O)[C@@H]1OP(=O)(O)O` [Acetyl-CoA], the Km in experiment [2] amounted to 2000 ± 300 µM.

As for `CCCCCCCCCCCCCCCC(=O)SCCNC(=O)CCNC(=O)[C@H](O)C(C)(C)COP(=O)(O)OP(=O)(O)OC[C@H]1O[C@@H](n2cnc3c(N)ncnc32)[C@H](O)[C@@H]1OP(=O)(O)O` [Palmitoyl-CoA], the Km in experiment [2] was found to be 5.8 ± 0.5 µM.

With `CCCCCCCCCCCC(=O)SCCNC(=O)CCNC(=O)[C@H](O)C(C)(C)COP(=O)(O)OP(=O)(O)OC[C@H]1O[C@@H](n2cnc3c(N)ncnc32)[C@H](O)[C@@H]1OP(=O)(O)O` [Lauroyl-CoA], the Michaelis-Menten constant (Km) in experiment [2] was determined as 19 ± 3 µM.

As for `CCCCCC(=O)SCCNC(=O)CCNC(=O)[C@H](O)C(C)(C)COP(=O)(O)OP(=O)(O)OC[C@H]1O[C@@H](n2cnc3c(N)ncnc32)[C@H](O)[C@@H]1OP(=O)(O)O` [Hexanoyl-CoA], in experiment [2], the Michaelis constant (Km) worked out at 200 ± 40 µM.

For `CCCCCCCC(=O)SCCNC(=O)CCNC(=O)[C@H](O)C(C)(C)COP(=O)(O)OP(=O)(O)OC[C@H]1O[C@@H](n2cnc3c(N)ncnc32)[C@H](O)[C@@H]1OP(=O)(O)O` [Octanoyl-CoA], the Km in experiment [2] is 370 ± 60 µM.

Regarding `CCC(=O)SCCNC(=O)CCNC(=O)[C@H](O)C(C)(C)COP(=O)(O)OP(=O)(O)OC[C@H]1O[C@@H](n2cnc3c(N)ncnc32)[C@H](O)[C@@H]1OP(=O)(O)O` [Propionyl-CoA], the Km in experiment [2] was determined as 2200 ± 500 µM.

For the compound `CCCCCCCCCC(=O)SCCNC(=O)CCNC(=O)[C@H](O)C(C)(C)COP(=O)(O)OP(=O)(O)OC[C@H]1O[C@@H](n2cnc3c(N)ncnc32)[C@H](O)[C@@H]1OP(=O)(O)O` [Decanoyl-CoA], the Km in experiment [2] turned out to be 33 ± 5 µM.

In the case of “Mycobacterium avium subspecies paratuberculosis long-chain acyl-CoA carboxylase (enzyme)”, the stoichiometry N in experiment [3], in experiment [4] and in experiment [5] was 6 in each case.
